Like-named read-outs stand apart in the source and are kept apart here.
Assays:
Assay in all cases: MIC of penicillin G alone or with bovine LF, macrodilution
Format in all cases: cell-based
[1] = test system: S. aureus ATCC 25923; settings: Staphylococcus aureus, strain β-lactamase type −, read-out: MICs of penicillin G
Text: (§1) Staphylococcus aureus strains ATCC 25923 and 6538 and Escherichia coli ATCC 25922 were obtained from the American Type Culture Collection. Eight bovine mastitis clinical isolates of S. aureus (SHY97-3906, -3923, -4085 -4242, -4320 and -4343, RFT-1 and RFT-5) and one isolate of E. coli SHY97-3923-2 and one isolate of Kiebsiella pneumoniae SHY99-723-1 were kindly provided by the Laboratoire Provincial de Pathologie Animale of St-Hyacinthe and of Rock-Forest (Quebec, Canada), respectively. Nine β-lactam antibiotics resistant S. aureus strains (PC-1, NCTC 9789, 2076, 22260, ST79/741, 3804, RN9, FAR8, and FAR10) were obtained from Vanderbilt University School of Medicine (Nashville, Tenn., USA). All the culture media were from Difco Laboratories (Detroit, Mich.). Bacteria from frozen stock at −80° C. were streaked onto tryptic soy agar plates suplemented with 5% of defibrinated sheep blood (Quelab, Montreal, QC, Canada) or Brain Heart infusion agar plates. Plates were then incubated for 16 to 24 h at 37° C. For most experiments, the strains were subcultured onto Mueller Hinton agar plates (MHA) or broth (MHB) for an additional 16-20 h. Aqueous solutions of the tested products were added by filtration through a sterile filter assembly (pore size 0.2 μm, Fisher, Ottawa, Ontario).
(§2) The MICs were determined by both macrodilution (1 ml/tube) and microdilution (100 μl/well) in sterile 96 well microtiter plates (International Nunc, Napierville, Ill.) techniques in three separate experiments according to the National Committee for Clinical Laboratory Standards (1992 and 1999) in three separate experiments. Serial 2-fold dilutions in MHB of LF, LFC, antibiotic or combination of LF or LFC with antibiotic were inoculated with an overnight culture at a final inoculum of 10^6 cfu/ml in MHB. Effect of LF combination with antibiotic on MICs were determined by adding 0.5 mg or 1 mg/ml of LF to each antibiotic dilution. The MIC was defined as the lowest concentration of drug (highest dilution) that caused a complete inhibition of bacterial growth after an incubation of 18 h. Effect of LF or LFC combination with antibiotic on MIC was also determined by checkerboard method using 96 well microtiter plates. Each antibiotic dilution (50 μl) was serially added to the wells in vertical rows starting from the top (lower dilution) to the bottom. Lactoferrin or LFC (50 μl) were added to 50 μl of each antibiotic dilution and serially diluted starting at the left (lower dilution) to the right. After inoculation, the final concentration of antibiotic from top to bottom were 32 to 8, 2 to 0.5, 0.5 to 0.125 μg/ml for penicillin, cefazolin and neomycin, respectively. From left to right, the concentration of LF or LFC were 25 to 0.0244 mg/ml or 256 to 0.5 μg/ml respectively in a final volume of 100 μl/well. The microplate's were incubated at 37° C. for 24 h. Bacterial growth was measured optically at 540 nm using Spectra Max 250 Microplate Spectrophotometer System of Molecular Device (Fisher Scientific, Ottawa, Canada). Tubes were incubated at 37° C. for 18 h and bacterial growth was measured by visual examination and optically at 540 nm using a spectrophotometer (Philips PU 8800; Pye Unican Ltd, Cambridge, UK). The fractional inhibitory concentration (FIC) was calculated as described by Eliopoulos and Moellering (1991).

[2] = test system: S. aureus ST79/41; settings: Staphylococcus aureus, strain β-lactamase +B, read-out: MICs of penicillin G
Text: as §1, §2

[3] = test system: S. aureus SHY97-3906; settings: Staphylococcus aureus, strain β-lactamase + uncharacterised, read-out: MICs of penicillin G
Text: as §1, §2

[4] = test system: S. aureus NCTC; settings: Staphylococcus aureus, strain β-lactamase +A
Text: as §1, §2

[5] = test system: S. aureus SHY97-4320; settings: Staphylococcus aureus, strain β-lactamase + uncharacterised, read-out: MICs of penicillin G
Text: as §1, §2

[6] = test system: S. aureus SHY97-3923; settings: Staphylococcus aureus, strain β-lactamase type −, read-out: MICs of penicillin G
Text: as §1, §2

[7] = test system: S. aureus FAR 8; settings: Staphylococcus aureus, strain β-lactamase +D, read-out: MICs of penicillin G
Text: as §1, §2

[8] = test system: S. aureus FAR 10; settings: Staphylococcus aureus, strain β-lactamase +D, read-out: MICs of penicillin G
Text: as §1, §2

[9] = test system: S. aureus PC-1; settings: Staphylococcus aureus, strain β-lactamase +A constitutive
Text: as §1, §2

**Q.** With `CC1(C)S[C@@H]2[C@H](NC(=O)Cc3ccccc3)C(=O)N2[C@H]1C(=O)O` [penicillin G, Penicillin G] as the compound, how does the MIC ([1]; ATCC25923, +0.5 mg/ml LF) read?
**A.** 0.031 µg/mL

**Q.** And the MIC ([1]; ATCC25923, +1 mg/ml LF)?
**A.** 0.015 µg/mL

**Q.** And the MIC ([1]; ATCC25923, Alone)?
**A.** 0.031 µg/mL

**Q.** And the MIC ([2]; ST79/41, +0.5 mg/ml LF)?
**A.** 16 µg/mL

**Q.** What about the MIC ([2]; ST79/41, +1 mg/ml LF) of the same compound?
**A.** 16 µg/mL

**Q.** What about the MIC ([2]; ST79/41, Alone) of the same compound?
**A.** 32 µg/mL

**Q.** What about the MIC ([3]; SHY973906, +0.5 mg/ml LF) of the same compound?
**A.** 0.5 µg/mL

**Q.** And the MIC ([3]; SHY973906, +1 mg/ml LF)?
**A.** 0.25 µg/mL

**Q.** What about the MIC ([3]; SHY973906, Alone) of the same compound?
**A.** 0.5 µg/mL

**Q.** And the MIC ([4]; read-out: MICs of penicillin G, +0.5 mg/ml LF)?
**A.** 128 µg/mL

**Q.** And the MIC ([4]; read-out: MICs of penicillin G, +1 mg/ml LF)?
**A.** 128 µg/mL

**Q.** And the MIC ([4]; read-out: MICs of penicillin G, Alone)?
**A.** > 128 µg/mL

**Q.** And the MIC ([5]; SHY974320, +0.5 mg/ml LF)?
**A.** 32 µg/mL

**Q.** What about the MIC ([5]; SHY974320, +1 mg/ml LF) of the same compound?
**A.** 32 µg/mL

**Q.** What about the MIC ([5]; SHY974320, Alone) of the same compound?
**A.** 64 µg/mL

**Q.** And the MIC ([6]; SHY973923, +0.5 mg/ml LF)?
**A.** 0.007 µg/mL

**Q.** And the MIC ([6]; SHY973923, +1 mg/ml LF)?
**A.** 0.007 µg/mL

**Q.** And the MIC ([6]; SHY973923, Alone)?
**A.** 0.015 µg/mL

**Q.** And the MIC ([7]; FAR8, +0.5 mg/ml LF)?
**A.** 8 µg/mL

**Q.** What about the MIC ([7]; FAR8, +1 mg/ml LF) of the same compound?
**A.** 8 µg/mL

**Q.** What about the MIC ([7]; FAR8, Alone) of the same compound?
**A.** 16 µg/mL

**Q.** And the MIC ([8]; FAR10, +0.5 mg/ml LF)?
**A.** 1 µg/mL

**Q.** What about the MIC ([8]; FAR10, +1 mg/ml LF) of the same compound?
**A.** 1 µg/mL

**Q.** And the MIC ([8]; FAR10, Alone)?
**A.** 2 µg/mL

**Q.** What about the MIC ([9]; PC1, read-out: MICs of penicillin G, +0.5 mg/ml LF) of the same compound?
**A.** 128 µg/mL

**Q.** What about the MIC ([9]; PC1, read-out: MICs of penicillin G, +1 mg/ml LF) of the same compound?
**A.** 128 µg/mL

**Q.** What about the MIC ([9]; PC1, read-out: MICs of penicillin G, Alone) of the same compound?
**A.** > 128 µg/mL

— patent US20030134779A1, “Method and composition for treatment and/or prevention of antibiotic-resistant microorganism infections” (priority 2002, published 2003)
